Where two headings read alike, the source gives them in different places.
How the values were obtained:
[1] = test system: asymptomatic HIV+ adults; test: Single blind 90 day randomized bridging clinical trial in Nigeria; type: in vivo, human
Description: The differences in CD4 count, CD4%, hemoglobin, viral load, interferon alpha, and standard chemistry panel were measured between treated versus non-treated groups four times throughout the study. […] When used alone, it appears to slow and/or stop the progression of the disease.

[2] = test system: colon cancer; test: Case report, stage 4 colon cancer; type: in vivo, human
Source text: A person diagnosed with stage 4-colon cancer, 2007 which had spread to their lungs and liver, they removed 40% of their colon and began a round of chemotherapy and three surgeries removed 40% of their colon, half is their right lung and 75% of their liver. During the next 18 months received 47 weeks of chemotherapy (a combination of 4 chemo drugs at once).

[3] = test system: prostate cancer; test: Case report, stage 3 prostate cancer; type: in vivo, human; conditions: person; 4.5 mg nightly with Docetaxel
Source text: person was diagnosed with stage 3 prostate cancer which they were originally treated for 5 years before began 3 rounds of Docetaxel (Taxotere®).

[4] = test system: autism; test: 10 studies of naltrexone in 155 children with autism; type: in vivo, human
Source text: 155 children participated in 10 studies; 27 received placebo.

[5] = test system: lymphocyte subsets of autistic children; test: Behavioral and immunological assessment in autism, double-blind naltrexone; set-up: species or system human; conditions: in vivo
Source text: Opioid-immune interactions in autism: behavioral and immunological assessment during a double-blind treatment with naltrexone.
Changes in natural killer cells and activity were inversely related to plasma beta-endorphin levels.

[6] = test system: Autoimmune Hepatitis; test: Case report, Autoimmune Hepatitis Type 1; type: in vivo, human; conditions: first two weeks
[7] = test system: Hepatitis B; test: Case report, Hepatitis B; type: in vivo, human
[8] = test system: Crohn's disease; test: Pilot clinical trial in children with moderate to severe Crohn's disease; type: in vivo, human
Description: A pilot clinical trial was conducted in children with moderate to severe Crohn's disease. Fourteen subjects with a mean age of 12.3 years (range, 8 to 17 y) were enrolled. […] Safety and toxicity were monitored by physical examinations and blood chemistries. Clinical activity was assessed by the Pediatric Crohn's Disease Activity Index (PCDAI) and Quality of life was monitored by the Impact III survey.

[9] = test system: Shingles; test: Case report, shingles; type: in vivo, human; conditions: person; 4.5 mg nightly since 2013
Description: A person diagnosed with Shingles in 2010 over 18 months had 8 major outbreaks, and was treated with acyclovir, and valacyclovir, as the outbreaks continued they prescribed Lidocaine patches and pain medications.

[10] = test system: MS patients; test: Retrospective chart review of MS patients receiving LDN; type: in vivo, human
Source text: This study investigated the safety, tolerability, and benefits (fatigue, reduction) of LDN in patients with MS. It reviewed the number of patients who stopped taking LDN and if there were specific reasons for stopping the LDN. The frequency and variety of side effects that were specific to LDN use are reported. […] 1, 2005 and May 31, 2012. There were 215 MS patients having exposure to LDN during the time of this study. […] In addition to the assessment we review Brain MRIs and Spinal Cord MRIs that were obtained as part of the clinical status of the patient and standard of care.
It reviewed the number of patients who stopped taking IMMEDIATE RELEASE NALTREXONE (LDN) and if there were specific reasons for stopping the IMMEDIATE RELEASE NALTREXONE (LDN). […] 1, 2005 and May 31, 2012. […] In addition to the assessment we review Brain Mills and Spinal Cord MRIs that were obtained as part of the clinical status of the patient and standard of care.

[11] = test system: psoriatic arthritis; test: Case report, psoriatic arthritis; type: in vivo, human
[12] = test system: CRPS
[13] = normal volunteers, HIV positive, multiple sclerosis, autism, fibromyalgia, diabetes, and cancer patients; cited from earlier work
[14] = test system: Follicular Lymphoma (FL); conditions: 1 year after last CT/PET imaging; cited from earlier work
[15] = test system: patients with AIDS; conditions: cited from earlier work
[16] = test system: Systemic Lupus; test: Case reports, systemic lupus; conditions: person
[17] = test system: pancreatic cancer cells: MIA-PaCa2, PANC1, and BxPC3; test: Continuous 48 h exposure to naltrexone, pancreatic cancer cells
[18] = of the 128 that received naltrexone
[19] = 3.0 mg daily at bedtime, 12 weeks, vs placebo

O=C1CC[C@@]2(O)[C@H]3Cc4ccc(O)c5c4[C@@]2(CCN3CC2CC2)[C@H]1O5 [Immediate release naltrexone, naltrexone]
improvement in CD4 count, increase ([1]; about 4.5 mg single oral dose with ART, at 3 months, vs control group): 44% | BMI ([1]; about 4.5 mg with ART): increase | opportunistic infections ([1]; about 4.5 mg with ART): reduction | Improvement in CD4% ([1]; about 4.5 mg with ART, throughout treatment): statistically significant | completion of chemotherapy protocol ([2]; person, 4.5 mg nightly with chemotherapy): without any major side effects | scans every six months ([2]; until June of 2015): cancer free | blood work [3]: stayed stable | overall quality of life [3]: much better | side effects ([4]; in vivo): mild | tolerability ([4]; in vivo): generally well tolerated | children with statistically significant improvement in irritability and hyperactivity [4, 18]: 77% | children with statistically significant improvement in irritability and hyperactivity, number [4, 18]: 98 | T-cytotoxic-suppressor (CD4− CD8+) [5]: significant reduction | T-helper-inducers (CD4+ CD8−) [5]: significant increase | side effects [6]: vivid dreams and mild indigestion | ALT/AST ([7]; child, 1 mg): decreased to normal | viral load ([7]; child, 1 mg, within one month, from 59.2 million): 53,000 | serology ([7]; within 7 months): Sero-conversion to negative antigens and positive antibodies | viral load ([7]; within 7 months): 551 | PCDAI score ([8]; 0.1 mg/kg orally, 8-week course, pretreatment 34.2±3.3, P=0.005): 21.7±3.9 | Systemic and social quality of life (Impact III) ([8]; P=0.035): improved | improved with mild disease activity (decrease in PCDAI score by at least 10 points) ([8]; end of the study): 67% | in remission (score≦10) ([8]; end of the study): Twenty-five | tolerability ([8]; oral): well tolerated without any serious adverse events | shingles outbreaks [9]: not had a single outbreak | quality of life surveys: patients improved ([10]; human, in vivo): 83 patients | quality of life surveys: patients stable ([10]; human, in vivo): 92 patients | quality of life surveys: patients worse ([10]; human, in vivo): 9 | MRI scans showed improvement ([10]; of 215 patients): 14 | MRI scans stable ([10]; of 215 patients): 113 | MRI scans slightly worse ([10]; of 215 patients, new but inactive lesion(s)): 28 | quality of life ([10]; over a long period of time): improvement | use of other medication ([11]; person, 4.5 mg at bedtime, within 10 days): able to discontinue all paid medications as well as the Humira | disease course ([11]; six months): the disease has stabilized and the progressive deterioration has stopped | pain scores NRS ([12]; patient, EDS, 3 mg then 4.5 mg per day, from (7-10)/10): 3-5 /10 | post-operative pain NRS ([12]; patient, 3 weeks after resuming): 4-6 /10 | side effects ([12]; patient, 18 months): No side effects | fixed dystonia of the leg ([12]; patient, at cast removal after ankle surgery): remission | effect on the dystonia ([12]; patient, first months of treatment): no effect | CRPS symptoms ([12]; patient, maintained for 18 months): resolved completely | side effects ([12]; person five): No side effects | pain, average on the Numeric Rating Scale (NRS) ([12]; person five, 4.5 mg per day at night, from 8 to 10 before): 5 to 6 | dystonic spasms ([12]; person five, within 2 months): discontinued | toxicity [13]: no major toxicity | disease symptoms at follow-up [14]: remains asymptomatic | elevated levels of serum alpha interferon (IFN-α) ([15]; 1.75 mg nightly, 3-month double-blind period, vs placebo p<0.01): significant drop | lymphocyte mitogen responses [15, 19]: declined on placebo and not on Immediate release naltrexone | pathologically elevated levels of acid-labile alpha interferon [15, 19]: declined significantly | incidence of opportunistic infections ([15]; 3.0 mg daily at bedtime, 12 weeks, placebo 5 out of 16 (31%)): 0 of the 22 | survival of patients who did not show a decline in IFN-a ([15]; 2 of the 15): 13% | survival of patients who showed a decline in IFN-a ([15]; Nineteen of the 23): 83% | mean IFN-a level after decline ([15]; from mean of 144.9 IU. over a 12-month period, 23 patients): 11.0 IU. | side effects ([15]; human, in vivo): No side effects were noted | mobility ([16]; 3 mg, within three weeks): improved mobility | hospital stays ([16]; 4.5 mg, since March of 2013): no hospital stays | ANA ([16]; for 7 years): normal | Lupus status ([16]; liquid form titrated from 0.1 mg to 1.5 mg): in remission | tolerability ([16]; started at 1.5 mg): unable to take it due to insomnia and pruritis | effect on pancreatic cancer cells [17]: no effect
